For this test, the system named is edema in the hind paws (carrageenan). Briefly: carrageenan-induced hind paw edema, oral administration. The test is classed as in vivo, male Wistar rats. The following applies: Rattus norvegicus; for inhibition in vivo at 10 mg/kg: 10 mg/kg orally; for inhibition in vivo at 8 mg/kg: 8 mg/kg orally; for inhibition in vivo at 5 mg/kg: 5 mg/kg orally; for inhibition in vivo at 1 mg/kg: 1 mg/kg orally. How it is done: That is, male Wistar rats weighing about 100 g, one group consisting of 5 to 7 animals, were given orally the compounds according to the present invention and then edema was induced in the hind paws by subcutaneous injections of 0.1 ml of 1% carrageenan 1 hour after the administration of the test compounds, and the volumes of the hind paws were measured by a volume differential meter.
Background: In the carrageenan paw model, swelling and tenderness develop within hours.

Setting [1] is: 1 hr, read-out: Inhibition (%) 1 hr.
[2] abbreviates: 2 hr, read-out: Inhibition (%) 2 hr.
Setting [3] is: 3 hr, read-out: Inhibition (%) 3 hr.
Setting [4] is: 4 hr, read-out: Inhibition (%) 4 hr.
Setting [5] is: 5 hr, read-out: Inhibition (%) 5 hr.
Where [6] appears, read: 6 hr, read-out: Inhibition (%) 6 hr.

Molecules are shown by their SMILES. Like-named read-outs stand apart in the source and are kept apart here.

Results on 17 compounds are retold here after patent publication US4205170A, “Propionic acid derivatives” (priority 1976, dated 1980).

Consider `CC(C(=O)O)c1ccc2c(c1)Oc1ccccc1CC2=O` (stereo not drawn) [Compound 16, 2-(10,11-dihydro-11-oxodibenzo[b,f]oxepin-3-yl)-propionic acid], for which the inhibition in vivo at 10 mg/kg by setting is: under setting [1], 53.6%; under setting [2], 49.9%; under setting [3], 50.7%; under setting [4], 46.2%; under setting [5], 37%; under setting [6], 26.2%.

`CC(C(N)=O)c1cccc2c1Oc1ccccc1CC2=O` (stereo not drawn) [Compound 17, 2-(10,11-dihydro-11-oxodibenzo[b,f]oxepin-4-yl)-propionamide]: the inhibition in vivo at 10 mg/kg is 65.9% under setting [1]; 49.4% under setting [2]; 35.4% under setting [3]; 29% under setting [4]; 17.2% under setting [5]; 13% under setting [6].

For `CC(C(=O)O)c1cccc2c1Oc1ccccc1CC2=O` (stereo not drawn) [Compound 18, 2-(10,11-dihydro-11-oxodibenzo[b,f]oxepin-4-yl)-propionic acid], the inhibition in vivo at 8 mg/kg under setting [1] was found to be 34.3%; the inhibition in vivo at 8 mg/kg under setting [2] was 36.4%; the inhibition in vivo at 8 mg/kg under setting [3] was determined as 38.3%; the inhibition in vivo at 8 mg/kg under setting [4] worked out at 36.1%; the inhibition in vivo at 8 mg/kg under setting [5] stood at 36.1%; the inhibition in vivo at 8 mg/kg under setting [6] worked out at 35.1%.

As to `CC(C(=O)O)c1cccc2c1Oc1ccccc1CC2` (stereo not drawn) [Compound 19, 2-(10,11-dihydrodibenzo[b,f]oxepin-4-yl)-propionic acid], the inhibition in vivo at 10 mg/kg turned out to be 45.1% under setting [1]; 51.3% under setting [2]; 28.2% under setting [3]; 25.1% under setting [4]; 18.7% under setting [5]; 10.2% under setting [6].

On to `CC(C(=O)O)c1ccc2c(c1)C(=O)Cc1cccnc1S2` (stereo not drawn) [Compound 20, 2-(5,6-dihydro-6-oxobenzo[b]pyrido[3,2-f]thiepin-8-yl)-propionic acid], for which the inhibition in vivo at 10 mg/kg is, setting by setting: under setting [1], 45%; under setting [2], 54.3%; under setting [3], 47.5%; under setting [4], 33.8%; under setting [5], 28.9%; under setting [6], 24.3%.

On to `CC(C(=O)O)c1ccc2c(c1)CCc1cccnc1S2` (stereo not drawn) [Compound 21, 2-(5,6-dihydrobenzo[b]pyrido[3,2-f]thiepin-8-yl)-propionic acid], for which the inhibition in vivo at 10 mg/kg reads like this: under setting [1], 69.5%; under setting [2], 75.6%; under setting [3], 69%; under setting [4], 67%; under setting [5], 70.3%; under setting [6], 64.6%.

For `CCOC(=O)C(C)c1ccc2c(c1)CCc1cccnc1S2` (stereo not drawn) [Compound 22, Ethyl 2-(5,6-dihydrobenzo[b]pyrido[3,2-f]thiepin-8-yl)-propionate], the inhibition in vivo at 10 mg/kg reads like this: under setting [1], 29.6%; under setting [2], 51.7%; under setting [3], 59.1%; under setting [4], 57%; under setting [5], 45.9%; under setting [6], 42.8%.

For `CC(C(N)=O)c1ccc2c(c1)CCc1cccnc1S2` (stereo not drawn) [Compound 23, 2-(5,6-dihydrobenzo[b]pyrido[3,2-f]thiepin-8-yl)-propionamide], the inhibition in vivo at 5 mg/kg is 22.6% under setting [1]; 53.8% under setting [2]; 60.9% under setting [3]; 64.1% under setting [4]; 51.8% under setting [5]; 37.5% under setting [6].

Turning to `CC(C(=O)O)c1ccc2c(c1)Sc1ncccc1CC2` (stereo not drawn) [Compound 24, 2-(5,6-dihydrobenzo[b]pyrido[3,2-f]thiepin-9yl)-propionic acid], the inhibition in vivo at 10 mg/kg runs as follows: under setting [1], 19.6%; under setting [2], 52.1%; under setting [3], 49.9%; under setting [4], 38.3%; under setting [5], 28.2%; under setting [6], 27.2%.

As for `CCOC(=O)C(C)c1ccc2c(c1)Sc1ncccc1CC2` (stereo not drawn) [Compound 25, Ethyl 2-(5,6-dihydrobenzo[b]pyrido[3,2-f]thiepin-9-yl)-propionate], the inhibition in vivo at 10 mg/kg reads like this: under setting [1], 42.8%; under setting [2], 57.7%; under setting [3], 61%; under setting [4], 52.7%; under setting [5], 33.4%; under setting [6], 29.2%.

Turning to `CC(C(=O)O)c1ccc2c(c1)C(=O)Cc1cccnc1O2` (stereo not drawn) [Compound 26, 2-(5,6-dihydro-6-oxobenzo[b]pyrido[3,2-f]oxepin-8-yl)-propionic acid], the inhibition in vivo at 5 mg/kg came out at 55.7% under setting [1]; 52.6% under setting [2]; 40% under setting [3]; 32.2% under setting [4]; 29.7% under setting [5]; 24% under setting [6].

With `CC(C(=O)O)c1ccc2c(c1)CCc1cccnc1O2` (stereo not drawn) [Compound 27, 2-(5,6-dihydrobenzo[b]pyrido[3,2-f]oxepin-8yl)-propionic acid], the inhibition in vivo at 5 mg/kg came to 68% under setting [1]; 83.5% under setting [2]; 79% under setting [3]; 81% under setting [4]; 70.6% under setting [5]; 61.5% under setting [6].

For the compound `CCOC(=O)C(C)c1ccc2c(c1)CCc1cccnc1O2` (stereo not drawn) [Compound 28], the inhibition in vivo at 5 mg/kg reads like this: under setting [1], 11.7%; under setting [2], 35.1%; under setting [3], 50.9%; under setting [4], 55.4%; under setting [5], 47.1%; under setting [6], 37.7%.

As for `CC(C(N)=O)c1ccc2c(c1)CCc1cccnc1O2` (stereo not drawn) [Compound 29, 2-(5,6-dihydrobenzo[b]pyrido[3,2-f]oxepin-8-yl)-propionamide], the inhibition in vivo at 5 mg/kg came to 18.1% under setting [1]; 38.3% under setting [2]; 53.5% under setting [3]; 53.8% under setting [4]; 46.2% under setting [5]; 42.9% under setting [6].

Turning to `CC(C(N)=O)c1ccc2c(c1)CCc1ccccc1S2` (stereo not drawn) [Compound 30, 2-(10,11-dihydrodibenzo[b,f]thiepin-2-yl)-propionamide], the inhibition in vivo at 5 mg/kg under setting [1] was determined as 21.4%; the inhibition in vivo at 5 mg/kg under setting [2] amounted to 56.4%; the inhibition in vivo at 5 mg/kg under setting [3] was determined as 59%; the inhibition in vivo at 5 mg/kg under setting [4] is 52.8%; the inhibition in vivo at 5 mg/kg under setting [5] stood at 38.6%; the inhibition in vivo at 5 mg/kg under setting [6] came out at 27.3%.

On to `O=C(O)c1ccccc1Nc1cccc(C(F)(F)F)c1` [Flufenamic acid, reference compound], for which the inhibition in vivo at 5 mg/kg came to 6.8% under setting [1]; 25.9% under setting [2]; 26.2% under setting [3]; 25.3% under setting [4]; 16% under setting [5]; 10.6% under setting [6]. For the same compound, the inhibition in vivo at 10 mg/kg reads like this: under setting [1], -2.9%; under setting [2], 23.9%; under setting [3], 26.8%; under setting [4], 29.5%; under setting [5], 23.8%; under setting [6], 15.4%.

As to `COc1ccc2c(c1)c(CC(=O)O)c(C)n2C(=O)c1ccc(Cl)cc1` [Indomethacin, reference compound], the inhibition in vivo at 1 mg/kg runs as follows: under setting [1], 21.6%; under setting [2], 39.6%; under setting [3], 29.9%; under setting [4], 36.4%; under setting [5], 28.9%; under setting [6], 28.7%. Further, the inhibition in vivo at 5 mg/kg runs as follows: under setting [1], 38.3%; under setting [2], 51.7%; under setting [3], 59.2%; under setting [4], 58.4%; under setting [5], 48.7%; under setting [6], 41%. The inhibition in vivo at 10 mg/kg is, setting by setting: under setting [1], 64.4%; under setting [2], 59.8%; under setting [3], 52.1%; under setting [4], 63.8%; under setting [5], 54.4%; under setting [6], 50.3%.
